Active and inactive are the calls of the source. The calls are words filed in the database; no cut-off is given here.
How the values were obtained:
[1] = Antiproliferative activity against PTEN deficient human MDA468 cells after 3 days by MTS assay; assay type: functional, cell-based; settings: MDA-MB-468, 72 h
LNCaP = experiment: Antiproliferative activity against PTEN deficient human LNCAP cells after 3 days by MTS assay; assay type: functional, cell-based; settings: 72 h
[2] = biological target: Serine/threonine-protein kinase mTOR (Homo sapiens, UniProt P42345); experiment: Inhibition of human FLAG-tagged mTOR expressed in HEK293 cells after 2 hrs by DELFIA; assay type: cell-based
[3] = Selectivity ratio, IC50 for PI3Kalpha to IC50 for human FLAG-tagged mTOR
[4] = Metabolic stability in human microsomes assessed as half life; assay type: ADME, Microsome
[5] = biological target: Phosphatidylinositol 4,5-bisphosphate 3-kinase catalytic subunit alpha isoform (Homo sapiens, UniProt P42336); experiment: Binding affinity to PI3Kalpha by fluorescence polarization assay
Chain of Phosphatidylinositol 4,5-bisphosphate 3-kinase catalytic subunit alpha isoform (P42336 whole entry, canonical isoform): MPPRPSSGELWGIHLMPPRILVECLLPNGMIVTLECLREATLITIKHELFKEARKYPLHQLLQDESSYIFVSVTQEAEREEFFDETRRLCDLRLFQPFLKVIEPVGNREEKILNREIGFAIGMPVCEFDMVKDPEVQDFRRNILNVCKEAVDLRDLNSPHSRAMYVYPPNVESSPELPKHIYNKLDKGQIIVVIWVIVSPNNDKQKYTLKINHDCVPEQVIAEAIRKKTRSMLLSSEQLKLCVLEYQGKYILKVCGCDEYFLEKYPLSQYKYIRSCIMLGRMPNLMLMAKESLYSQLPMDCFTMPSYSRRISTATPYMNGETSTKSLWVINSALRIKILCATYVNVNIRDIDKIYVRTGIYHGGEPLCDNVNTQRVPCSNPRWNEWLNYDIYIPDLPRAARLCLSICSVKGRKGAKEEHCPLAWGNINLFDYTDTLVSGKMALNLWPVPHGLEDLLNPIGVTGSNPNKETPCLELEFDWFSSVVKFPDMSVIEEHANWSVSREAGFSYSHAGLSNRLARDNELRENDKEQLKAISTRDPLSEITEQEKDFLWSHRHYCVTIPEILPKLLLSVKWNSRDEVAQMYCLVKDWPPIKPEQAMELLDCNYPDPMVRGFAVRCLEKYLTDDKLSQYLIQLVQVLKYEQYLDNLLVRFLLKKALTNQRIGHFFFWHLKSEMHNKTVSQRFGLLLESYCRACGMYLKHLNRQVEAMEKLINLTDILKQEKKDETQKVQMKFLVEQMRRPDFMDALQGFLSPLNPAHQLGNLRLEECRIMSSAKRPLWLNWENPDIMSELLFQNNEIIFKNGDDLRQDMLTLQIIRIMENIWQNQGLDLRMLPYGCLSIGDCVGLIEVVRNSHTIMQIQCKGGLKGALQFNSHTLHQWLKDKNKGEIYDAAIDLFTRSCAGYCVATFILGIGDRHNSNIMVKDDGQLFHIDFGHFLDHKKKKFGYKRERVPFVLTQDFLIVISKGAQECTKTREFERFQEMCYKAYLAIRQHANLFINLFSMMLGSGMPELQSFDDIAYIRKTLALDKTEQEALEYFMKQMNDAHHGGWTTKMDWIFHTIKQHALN

[6] = Solubility at pH 3; assay type: physicochemical; settings: buffer
[7] = biological target: Phosphatidylinositol 4,5-bisphosphate 3-kinase catalytic subunit beta isoform (Homo sapiens, UniProt P42338); experiment: Inhibition of PI3Kbeta
Chain of Phosphatidylinositol 4,5-bisphosphate 3-kinase catalytic subunit beta isoform (P42338 whole entry, canonical isoform): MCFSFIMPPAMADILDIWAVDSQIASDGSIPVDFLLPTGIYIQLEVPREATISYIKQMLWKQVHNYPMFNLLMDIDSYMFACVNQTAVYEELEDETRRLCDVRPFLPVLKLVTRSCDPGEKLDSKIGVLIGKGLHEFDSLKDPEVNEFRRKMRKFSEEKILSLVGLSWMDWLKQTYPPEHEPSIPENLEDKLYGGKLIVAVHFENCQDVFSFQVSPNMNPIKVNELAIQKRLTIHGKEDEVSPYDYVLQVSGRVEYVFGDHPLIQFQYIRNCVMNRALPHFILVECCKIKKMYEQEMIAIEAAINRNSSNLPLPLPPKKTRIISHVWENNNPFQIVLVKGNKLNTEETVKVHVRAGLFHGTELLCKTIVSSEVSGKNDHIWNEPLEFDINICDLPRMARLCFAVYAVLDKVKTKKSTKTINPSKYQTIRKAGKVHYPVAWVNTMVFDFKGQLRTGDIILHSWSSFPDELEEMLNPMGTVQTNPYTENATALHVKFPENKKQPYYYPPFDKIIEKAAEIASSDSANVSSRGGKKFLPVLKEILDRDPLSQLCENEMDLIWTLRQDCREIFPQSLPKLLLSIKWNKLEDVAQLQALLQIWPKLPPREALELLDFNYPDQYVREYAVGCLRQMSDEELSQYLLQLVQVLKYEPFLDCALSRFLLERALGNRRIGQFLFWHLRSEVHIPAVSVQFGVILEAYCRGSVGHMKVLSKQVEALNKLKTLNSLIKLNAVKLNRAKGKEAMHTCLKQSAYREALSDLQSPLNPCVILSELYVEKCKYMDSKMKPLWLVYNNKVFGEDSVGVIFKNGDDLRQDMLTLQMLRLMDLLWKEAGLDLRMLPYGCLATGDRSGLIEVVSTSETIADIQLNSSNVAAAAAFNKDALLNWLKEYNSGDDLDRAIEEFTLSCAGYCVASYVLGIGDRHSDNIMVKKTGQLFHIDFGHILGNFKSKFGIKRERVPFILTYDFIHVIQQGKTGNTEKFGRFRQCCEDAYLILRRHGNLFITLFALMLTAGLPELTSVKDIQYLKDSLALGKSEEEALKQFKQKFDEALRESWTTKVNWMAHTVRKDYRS

[8] = biological target: Phosphatidylinositol 4,5-bisphosphate 3-kinase catalytic subunit gamma isoform (Homo sapiens, UniProt P48736); experiment: Inhibition of PI3Kgamma
Chain of Phosphatidylinositol 4,5-bisphosphate 3-kinase catalytic subunit gamma isoform (P48736 whole entry, canonical isoform): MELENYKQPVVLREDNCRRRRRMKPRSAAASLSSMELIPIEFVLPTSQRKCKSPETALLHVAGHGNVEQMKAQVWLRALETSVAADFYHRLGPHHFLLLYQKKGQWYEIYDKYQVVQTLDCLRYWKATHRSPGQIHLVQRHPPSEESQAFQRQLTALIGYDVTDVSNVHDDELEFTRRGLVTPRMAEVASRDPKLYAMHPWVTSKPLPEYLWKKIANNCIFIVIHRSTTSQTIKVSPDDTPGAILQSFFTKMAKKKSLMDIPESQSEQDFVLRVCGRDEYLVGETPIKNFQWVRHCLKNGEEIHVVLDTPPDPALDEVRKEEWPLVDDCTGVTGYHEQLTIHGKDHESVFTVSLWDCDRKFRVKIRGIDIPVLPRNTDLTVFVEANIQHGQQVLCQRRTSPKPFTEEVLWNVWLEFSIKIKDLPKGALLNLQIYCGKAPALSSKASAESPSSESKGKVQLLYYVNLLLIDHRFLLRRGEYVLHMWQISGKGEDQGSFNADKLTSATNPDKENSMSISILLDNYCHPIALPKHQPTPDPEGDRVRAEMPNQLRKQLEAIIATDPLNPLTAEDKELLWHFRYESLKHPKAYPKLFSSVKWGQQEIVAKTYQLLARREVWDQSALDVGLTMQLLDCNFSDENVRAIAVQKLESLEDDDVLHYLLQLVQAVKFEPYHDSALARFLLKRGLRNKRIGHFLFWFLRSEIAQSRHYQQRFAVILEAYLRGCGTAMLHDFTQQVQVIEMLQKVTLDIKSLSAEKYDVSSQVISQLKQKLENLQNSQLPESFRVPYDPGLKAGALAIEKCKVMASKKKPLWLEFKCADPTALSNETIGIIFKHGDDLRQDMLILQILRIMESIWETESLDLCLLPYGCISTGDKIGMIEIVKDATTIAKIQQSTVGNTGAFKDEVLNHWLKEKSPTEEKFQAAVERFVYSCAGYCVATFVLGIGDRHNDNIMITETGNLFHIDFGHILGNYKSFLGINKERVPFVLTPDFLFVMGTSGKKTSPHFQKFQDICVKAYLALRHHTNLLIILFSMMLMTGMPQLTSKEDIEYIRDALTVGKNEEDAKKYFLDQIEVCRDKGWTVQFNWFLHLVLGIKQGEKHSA

[9] = Clearance in nude mouse at 5 mg/kg, iv; assay type: ADME, organism-based; design: dose 5 mg/kg, route intravenous; settings: in vivo
[10] = Volume of distribution at steady state in nude mouse at 5 mg/kg, iv; assay type: ADME, organism-based; design: dose 5 mg/kg, route intravenous; settings: in vivo, read-out: Vdss
[11] = Half life in nude mouse at 5 mg/kg, iv; assay type: ADME, organism-based; design: dose 5 mg/kg, route intravenous; settings: in vivo
[12] = Plasma concentration in nude mouse at 25 mg/kg, iv after 8 hrs; assay type: ADME, organism-based; design: dose 25 mg/kg, route intravenous
[13] = AUC in nude mouse at 5 mg/kg, iv; assay type: ADME, organism-based; design: dose 5 mg/kg, route intravenous; settings: plasma
MDA-MB-361 [14] = experiment: Antitumor activity against human MDA-MB-361 cells xenografted in nude mouse assessed as inhibition of tumor growth at 20 mg/kg, iv every 5 days for 21 days; assay type: functional, organism-based; design: dose 20 mg/kg
[15] = Metabolic stability in mouse microsomes assessed as half life; assay type: ADME, Microsome
Mus musculus [16] = experiment: Inhibition of TORC1 in human MDA-MB-361 cells xenografted nude mouse assessed as p70-S6K level at 25 mg/kg, iv; assay type: functional, organism-based; design: dose 25 mg/kg
Mus musculus [17] = experiment: Inhibition of TORC2 in human MDA-MB-361 cells xenografted nude mouse assessed as p-AKT S473 level at 25 mg/kg, iv; assay type: functional, organism-based; design: dose 25 mg/kg
Mus musculus [18] = experiment: Antitumor activity against human MDA-MB-361 cells xenografted in nude mouse assessed as inhibition of tumor growth at 10 to 25 mg/kg, iv administered daily; assay type: functional, organism-based
Mus musculus [19] = experiment: Toxicity in nude mouse xenografted with human MDA-MB-361 cells at 10 to 25 mg/kg, iv administered daily; assay type: organism-based; design: dose 10-25 mg/kg, route intravenous; settings: in vivo
MDA-MB-361 [20] = experiment: Inhibition of mTORC2 in human MDA-MB-361 cells assessed as phosphorylated AKT S473 level at 25 nM

Structure (SMILES)	IC50 (LNCaP) [nM]	IC50 [2] [nM]	Ratio IC50 [3]	half-life [4] [min]	IC50 [5] [nM]	IC50 [1] [nM]	other results
CCn1ncc2c(N3CC4CCC(C3)O4)nc(-c3ccc(NC(=O)Nc4ccc(NC)nc4)cc3)nc21	17		302			200	
CCn1ncc2c(N3CC4CCC(C3)O4)nc(-c3ccc(NC(=O)Nc4ccccc4)cc3)nc21	0.8		212	5	66	12	
CCn1ncc2c(N3CC4CCC(C3)O4)nc(-c3ccc(NC(=O)Nc4ccc(OCCN(C)C)cc4)cc3)nc21	< 0.7	0.8	172	> 30	136	8	
CCn1ncc2c(N3CC4CCC(C3)O4)nc(-c3ccc(NC(=O)Nc4ccc(NCCN(C)C)cc4)cc3)nc21	2.8	1.7	122	14	207	7	
CN(C)CCn1ncc2c(N3CC4CCC(C3)O4)nc(-c3ccc(NC(=O)Nc4cccnc4)cc3)nc21	50		89			220	
CCn1ncc2c(N3CC4CCC(C3)O4)nc(-c3ccc(NC(=O)Nc4cccnc4)cc3)nc21	< 0.8	0.1	1120	4	148	1.2	
CCn1ncc2c(N3CC4CCC(C3)O4)nc(-c3ccc(NC(=O)Nc4ccc(N(C)C)nc4)cc3)nc21	6		282		282	80	
CCn1ncc2c(N3CC4CCC(C3)O4)nc(-c3ccc(NC(=O)NCCN(C)C)cc3)nc21	350	51	16			1250	
CCn1ncc2c(N3CC4CCC(C3)O4)nc(-c3ccc(NC(=O)Nc4ccc(OCCN5CCOCC5)nc4)cc3)nc21	< 0.7	1	383			0.8	solubility [6]: > 100 µg/mL
CCn1ncc2c(N3CC4CCC(C3)O4)nc(-c3ccc(NC(=O)Nc4ccc(C(=O)NN(C)C)cc4)cc3)nc21	< 0.7	0.3	350	23		< 0.7	
CCNC(=O)Nc1ccc(-c2nc(N3CC4CCC(C3)O4)c3cnn(CC)c3n2)cc1	16	0.6	2230			80	
CCn1ncc2c(N3CC4CCC(C3)O4)nc(-c3ccc(NC(=O)Nc4ccc(CN(C)C)cc4)cc3)nc21	7	1.1	239	29	263	30	
CCn1ncc2c(N3CC4CCC(C3)O4)nc(-c3ccc(NC(=O)Nc4ccc(N(C)CCN(C)C)cc4)cc3)nc21	0.8	0.9	295	14	256	0.8	
CCn1ncc2c(N3CC4CCC(C3)O4)nc(-c3ccc(NC(=O)Nc4ccc(N5CCN(C)CC5)nc4)cc3)nc21	< 0.7	0.7	275	> 30		0.8	solubility [6]: > 100 µg/mL
CCNC(=O)Nc1ccc(-c2nc(N3CC4CCC(C3)O4)c3cnn(CCN(C)C)c3n2)cc1	280		240			1800	

The next lines start with results.

IC50 (LNCaP) [nM]	IC50 [2] [nM]	Ratio IC50 [3]	half-life [4] [min]	IC50 [5] [nM]	Structure (SMILES)	IC50 [1] [nM]	other results
< 0.7	0.2	586	> 30		CCn1ncc2c(N3CC4CCC(C3)O4)nc(-c3ccc(NC(=O)Nc4ccc(C(=O)NN5CCCC5)cc4)cc3)nc21	4	
0.8	0.3	7300			CCn1ncc2c(N3CC4CCC(C3)O4)nc(-c3ccc(NC(=O)Nc4ccc(N5CCOCC5)nc4)cc3)nc21	8	
< 0.7	0.3	188	> 30	51	CCn1ncc2c(N3CC4CCC(C3)O4)nc(-c3ccc(NC(=O)Nc4ccc(N5CCN(C)CC5)cc4)cc3)nc21	< 0.7	
55		243	5		CCn1ncc2c(N3CC4CCC(C3)O4)nc(-c3ccc(NC(=O)Nc4ccc(N5CCCC5)cc4)cc3)nc21	120	
< 0.8	0.7	451	> 30	320	CCn1ncc2c(N3CC4CCC(C3)O4)nc(-c3ccc(NC(=O)Nc4ccc(CN5CCN(C)CC5)cc4)cc3)nc21	0.8	
< 0.8	0.6	237	24	150	CN1CCN(c2ccc(NC(=O)Nc3ccc(-c4nc(N5CC6CCC(C5)O6)c5cnn(CC(F)(F)F)c5n4)cc3)cc2)CC1	1.5	IC50 [7]: > 10000 nM; IC50 [8]: > 10000 nM; clearance [9]: 7 mL/min/kg; Vd [10]: 1.2 L/kg; half-life [11]: 174 min; concentration at 8 h [12]: 2500 ng/mL; AUC [13]: 12500 ng·h/mL; Activity (MDA-MB-361 [14]): Active; half-life [15]: > 30 min; Activity (Mus musculus [16]): Active; Activity (Mus musculus [17]): Active; Activity (Mus musculus [18]): Active; Activity (Mus musculus [19]): Non-toxic; Activity (MDA-MB-361 [20]): Active
< 0.7	0.1	570	10		CCn1ncc2c(N3CC4CCC(C3)O4)nc(-c3ccc(NC(=O)Nc4ccc(CCO)cc4)cc3)nc21	< 0.7	
< 0.8	0.2	318		76	O=C(Nc1ccc(-c2nc(N3CC4CCC(C3)O4)c3cnn(CC(F)(F)F)c3n2)cc1)Nc1ccc(N2CCNCC2)cc1	1	
< 0.7	0.2	972	6		CCn1ncc2c(N3CC4CCC(C3)O4)nc(-c3ccc(NC(=O)Nc4ccc(N5CCOCC5)cc4)cc3)nc21	< 0.7	
< 0.7	0.1	335	11		CCn1ncc2c(N3CC4CCC(C3)O4)nc(-c3ccc(NC(=O)Nc4ccc(CO)cc4)cc3)nc21	< 0.7	
< 0.8	0.2	95	> 30	21	CCn1ncc2c(N3CC4CCC(C3)O4)nc(-c3ccc(NC(=O)Nc4ccc(CN)cc4)cc3)nc21	< 0.8	
